Earlier results, collected in paper PMC10931745 (International Journal of Molecular Sciences, 2024).

What was measured:
[1] = tested on: Enterococcus faecalis (ATCC 19433); design: method as in PMID 24586598; conditions: literature data ref 78; cited from earlier work
[2] = tested on: Klebsiella pneumoniae (ATCC 13883); design: method as in PMID 35203751; conditions: literature data ref 77; cited from earlier work
[3] = tested on: Staphylococcus epidermidis (ATCC 14990); design: method as in PMID 16556639; conditions: literature data ref 76; cited from earlier work
[4] = tested on: Escherichia coli (ATCC 25922); design: method as in PMID 36179970; conditions: literature data ref 74; cited from earlier work
[5] = tested on: Staphylococcus aureus (ATCC 23235); design: method as in doi:10.1186/s40543-021-00294-2; conditions: literature data ref 75; cited from earlier work

| SMILES | M.B.C. E. faecalis [1] [µg/mL] | M.I.C. E. faecalis [1] [µg/mL] | M.B.C. K. pneumoniae [2] [µg/mL] | M.I.C. K. pneumoniae [2] [µg/mL] | M.B.C. S. epidermidis [3] [µg/mL] | M.I.C. S. epidermidis [3] [µg/mL] | M.B.C. E. coli [4] [µg/mL] | M.I.C. E. coli [4] [µg/mL] | M.B.C. S. aureus [5] | M.I.C. S. aureus [5] |
| --- | --- | --- | --- | --- | --- | --- | --- | --- | --- | --- |
| CNC(C)C1CCC(N)C(OC2C(N)CC(N)C(OC3OCC(C)(O)C(NC)C3O)C2O)O1 (stereo not shown) [Gentamicin] | 128 | 4 | > 40 | 1.25 | 16 to 64 | 8 to 32 |  |  |  |  |
| CC1(C)S[C@@H]2[C@H](NC(=O)[C@H](N)c3ccccc3)C(=O)N2[C@H]1C(=O)O [Ampicillin] |  |  |  |  |  |  | 4 | 2 | 1/(1) [75] µg/mL | 1/(1) [75] µg/mL |
